Each compound was assayed on INS-1E rat beta cells, no cytokines, CellTiter-Glo ATP, 48 h (assay: cytokine-free beta-cell viability effect – INS-1E rat cells, ATP luminescence, cherry pick, counter-screen for beta-cell apoptosis protection project, dose response (AID 463229)).
With `CCCCCCCCCCOC(=O)Cn1c(COc2ccccc2C)[n+](C)c2ccccc21` the AC50 was 3.22 µM.
Work on `CCn1c(C)c(C)c2cc(C(=O)N3CCc4ccccc4C3)ccc21` yielded an AC50 of 3.14 µM.
`CC(=O)Nc1ccc(S(=O)(=O)NC2=C(N3CCN(c4ccc(F)cc4)CC3)C(=O)c3ccccc3C2=O)cc1` gave an AC50 of 7.51 µM.
In the case of `CCN1c2ccccc2NC2N=C(OC)C(c3ccccc3)C21` (stereo not drawn), the AC50 is reported as 13.1 µM.
`O=C(C(Cl)Cl)N1c2ccccc2OCC1c1ccccc1` (stereo not drawn) was tested, and the AC50 was 8.31 µM.
`CCOC(=O)c1c(NC(=O)c2cc(-c3ccc(Cl)s3)nc3ccccc23)sc(C(N)=O)c1C` showed an AC50 of 11.5 µM.
In the case of `Cc1ccc(S(=O)(=O)Nc2cc(Cl)c(O)c3ncccc23)cc1`, the AC50 is reported as 4.38 µM.
`Cc1nnc(N/N=C/c2cc([N+](=O)[O-])c(N3CCC(C)CC3)cc2N2CCC(C)CC2)n1N` gave an AC50 of 2.54 µM.
Work on `O=C1C(C2=NC(c3ccccn3)C3C(=O)N(c4ccc(OC(F)(F)F)cc4)C(=O)C23)=C(O)c2ccccc21` (stereo not drawn) yielded an AC50 of 5.94 µM.
For `COc1ccccc1N1CCN(Cc2ccc(O)c3ncccc23)CC1`, the AC50 was 5.14 µM.
Compound `Cn1nnnc1N=N/C(=N/Nc1ccccc1)c1ccccc1` has an AC50 of 4.36 µM.
`COc1ccc(S(=O)(=O)Nc2ccc3oc(C)c(C(C)=O)c3c2)cc1` gave an AC50 of 12.3 µM.
For `Cc1cc(F)ccc1S(=O)(=O)Nc1ccccc1C(=O)Nc1ccccc1-c1nc2ccccc2[nH]1`, the AC50 was 7.72 µM.
In the case of `Cn1nc(-c2ccccn2)nc2c(=O)n(C)c(=O)nc1-2`, the AC50 is reported as 3.1 µM.
With `CC(=O)Nc1ccc(Nc2c3ccccc3nc3ccccc23)cc1` the AC50 was 7.08 µM.
`CC1(C)C(C=C(Cl)Cl)C1C(=O)Nc1ccc([N+](=O)[O-])cc1` (stereo not drawn) was tested, and the AC50 was 7.7 µM.
In the case of `OC(c1cc(-c2ccc(Cl)cc2)nc2ccccc12)C1CCCCN1` (stereo not drawn), the AC50 is reported as 15.1 µM.
With `CC1=C(CC(=O)c2ccc(Cl)cc2)C(=O)c2ccccc2C1=O` the AC50 was 26.6 µM.
Compound `N=c1ccn(Cc2ccc(Cl)cc2Cl)cc1` has an AC50 of 7.81 µM.
In the case of `O=C(N/N=C\c1c(O)ccc2ccccc12)c1ccc(Cn2cccn2)o1`, the AC50 is reported as 4.39 µM.
For `CN(c1ccccc1)c1ccc(/C=C/[N+](=O)[O-])cc1`, the AC50 was 8.01 µM.
`CN(C)CCCn1cnc2c(c1=N)C(c1ccccc1)c1ccc3ccccc3c1O2` (stereo not drawn) showed an AC50 of 7.08 µM.
In the case of `N#CC(C#N)=C1C=CC=CN1/C(=C\c1ccco1)C(=O)c1ccc(Br)cc1`, the AC50 is reported as 8.57 µM.
Compound `c1ccc(-c2nc(NCc3ccco3)c3ccccc3n2)nc1` has an AC50 of 8.46 µM.
Compound `N#CC1=C(N)Oc2c(ccc3cccnc23)C1c1ccccc1` (stereo not drawn) has an AC50 of 19.3 µM.
`CCCC(=O)NC(c1ccc(N(C)C)cc1)c1ccc2cccnc2c1O` (stereo not drawn) showed an AC50 of 2.08 µM.
For `Cn1nccc1C(=O)N/N=C/c1c(O)ccc2ccccc12`, the AC50 was 3.54 µM.
In the case of `c1ccc(N2CCN(c3nc(-c4ccccn4)nc4ccccc34)CC2)cc1`, the AC50 is reported as 14.9 µM.
`CCCC(=O)NC(c1ccc(Cl)cc1)c1ccc2cccnc2c1O` (stereo not drawn) was tested, and the AC50 was 2.08 µM.
`COC(=O)C1=C(C)N(Cc2ccccc2)C(=NCc2cccc(Cl)c2)N[C@H]1c1cccc(F)c1` was tested, and the AC50 was 6.75 µM.
In the case of `COc1ccc(CNCCC(c2ccccc2)c2ccc3c(c2)OCO3)cc1` (stereo not drawn), the AC50 is reported as 15.2 µM.
`COc1ccccc1-n1c(=O)oc2ccc(Cl)cc2c1=O` showed an AC50 of 11.8 µM.
Work on `COc1ccc(C(NC(C)=O)c2ccc3cccnc3c2O)c(OC)c1` (stereo not drawn) yielded an AC50 of 4.24 µM.
In the case of `O=C(NCc1cccnc1)/C(=C/c1ccc(-c2cccc(Cl)c2)o1)S(=O)(=O)c1ccccc1`, the AC50 is reported as 4.93 µM.
`O=S(=O)(NCC1CCCO1)c1ccc(-c2ccc(S(=O)(=O)NCC3CCCO3)cc2)cc1` (stereo not drawn) was tested, and the AC50 was 4.95 µM.
Compound `NNc1nc(-c2ccccc2)cc(-c2ccccc2O)n1` has an AC50 of 17.7 µM.
With `Nc1nc(-c2ccccn2)nc(N)c1Cc1ccc(Cl)cc1Cl` the AC50 was 11.9 µM.
For `Cc1ccc(OCCN2CCN(c3ncnc4sc(C)c(C)c34)CC2)cc1`, the AC50 was 4.03 µM.
`CCN(CC)CCNc1ncnc2c1sc1nc(N3CCOCC3)c3c(c12)CC(C)(C)SC3` showed an AC50 of 14.2 µM.
Work on `CCOc1ccc(C(=O)c2cc([N+](=O)[O-])ccc2N2CCOCC2)cc1` yielded an AC50 of 0.371 µM.
For `Cc1ccc(NC2=CC(=O)C(=O)c3ccccc32)cc1`, the AC50 was 7.65 µM.
In the case of `Cc1cccc(/C=N/NC(=O)c2c(-c3ccccc3)noc2C)c1O`, the AC50 is reported as 7.61 µM.
With `O=C(c1cc2sccc2n1Cc1ccc(F)cc1)N1CCN(c2nc3ccccc3s2)CC1` the AC50 was 5.82 µM.
In the case of `COc1cc(NC(=O)c2cc3ccccc3cc2O)c(OC)cc1Cl`, the AC50 is reported as 4.68 µM.
`N#Cc1ccc(-c2ccc(Cl)cc2)nc1SCC(=O)c1cccc(Cl)c1` was tested, and the AC50 was 6 µM.
`C=CCCc1ccc(C#N)c(SCc2c(C(=O)OCC)c3cc(OC(C)=O)c(Br)cc3n2C)n1` gave an AC50 of 1.07 µM.
In the case of `CCCCCc1ccc(OCCCC[n+]2ccccc2)c(CCCCC)c1`, the AC50 is reported as 3.3 µM.
Work on `O=C(/C=C/c1cccc([N+](=O)[O-])c1)c1ccc([N+](=O)[O-])o1` yielded an AC50 of 3.95 µM.
Compound `O=C(CSc1nc2ccccc2c(=O)n1-c1ccccc1)N1CCc2ccccc2C1` has an AC50 of 3.16 µM.
With `O=C(Nc1ccccc1O)C(c1ccccc1)c1ccccc1` the AC50 was 6.92 µM.
With `O=C(Nc1nc(-c2ccccc2)cs1)c1ccccc1NS(=O)(=O)c1ccc(F)cc1` the AC50 was 4.56 µM.
Work on `O=C(Nc1ccc(C(=O)Nc2ccccc2Cl)cc1)c1cccnc1` yielded an AC50 of 1.85 µM.
`C[n+]1c2n(c3ccccc31)N=C(c1cc(C(C)(C)C)c(O)c(C(C)(C)C)c1)CS2` gave an AC50 of 0.39 µM.
